The text below walks through data of paper PMC8228075, “In Vitro and In Silico Characterization of G-Protein Coupled Receptor (GPCR) Targets of Phlorofucofuroeckol-A and Dieckol” (Marine Drugs, 2021).

Several values for one entry are separate records, joined by “and”; a condition that tells them apart may be missing. Equal values may be shown once.

Usually EC50 stands for the concentration giving half of the maximal effect. A high value points to a less potent agent.

Common to all, as to assay type: cell-based
Assay [1] concerns the target T1, Cannabinoid receptor 1 (CB1R) (Homo sapiens, UniProt P21554).
T1 construct: host or cells: CHO cells
Nature of the assay: hCB1R functional antagonist assay (cAMP, HTRF, CHO cells). The settings on record: CHO, read-out: Antagonist Effect. As to the method:
(§1) The in-house assay protocol and experimental conditions are reported in our previous reports. The functional effect of dieckol and PFF-A was characterized based on their modulation effect on cytosolic Ca^2+ ion mobilization using a fluorimetric detection method or by measuring their effect on cAMP modulation using homogeneous time-resolved fluorescence (HTRF) detection.
(§2) Functional activity of phlorotannins over hA2AR, hα2CAR, hCB1R, GLP-1R, and h5-HT1BR was determined by measuring their effects on cAMP production by the HTRF detection method using transected cells expressing human cloned receptors.
(§3) The transfected CHO cells were suspended in HBSS buffer (Invitrogen) complemented with 20 mM HEPES (pH 7.4). […] After 30 min of incubation at 37 °C, the cells were lysed and the fluorescence acceptor (D2-labeled cAMP) and fluorescence donor (anti-cAMP antibody labeled with europium cryptate) were added.
On the technique in general: In TR-FRET formats the signal depends on donor and acceptor labels being close together.

For assay [2], the target named is T2, Free fatty acid receptor 1 (FFA1R) (GPR40) (Homo sapiens, UniProt O14842).
T2 construct: host or cells: HEK-293 cells
T2 sequence (O14842 whole entry): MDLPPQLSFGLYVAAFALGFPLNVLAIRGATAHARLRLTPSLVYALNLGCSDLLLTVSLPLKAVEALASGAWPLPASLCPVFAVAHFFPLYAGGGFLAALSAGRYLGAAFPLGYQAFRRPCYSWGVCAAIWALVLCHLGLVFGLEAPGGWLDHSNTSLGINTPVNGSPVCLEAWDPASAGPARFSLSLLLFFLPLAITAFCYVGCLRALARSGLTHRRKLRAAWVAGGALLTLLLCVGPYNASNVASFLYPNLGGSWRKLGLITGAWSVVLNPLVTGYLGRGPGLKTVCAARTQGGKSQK
Nature of the assay: FFA1R/GPR40 functional antagonist assay (Ca2+ mobilization, HEK-293 cells). As to conditions: HEK293, read-out: Antagonist Effect. (Calcium assays in cells follow changes in intracellular calcium, usually with a dye or a luminescent sensor.)

In assay [3] the target is T3, Alpha-2A adrenergic receptor (hα2AAR) (Homo sapiens, UniProt P08913).
T3 construct: host or cells: rat basophil leukemia cells
T3 sequence (P08913 1-465): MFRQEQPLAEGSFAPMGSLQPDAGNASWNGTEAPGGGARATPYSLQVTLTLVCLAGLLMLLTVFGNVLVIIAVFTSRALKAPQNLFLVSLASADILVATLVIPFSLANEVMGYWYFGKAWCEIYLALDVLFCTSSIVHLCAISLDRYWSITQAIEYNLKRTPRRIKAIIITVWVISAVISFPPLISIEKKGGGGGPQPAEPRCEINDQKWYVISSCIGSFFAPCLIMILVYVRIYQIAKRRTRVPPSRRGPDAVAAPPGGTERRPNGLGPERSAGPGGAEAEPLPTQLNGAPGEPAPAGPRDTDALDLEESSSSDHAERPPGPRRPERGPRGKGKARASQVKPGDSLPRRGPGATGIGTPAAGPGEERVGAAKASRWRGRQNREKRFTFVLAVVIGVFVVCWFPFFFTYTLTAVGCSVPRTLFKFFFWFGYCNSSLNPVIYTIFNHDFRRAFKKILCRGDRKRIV
Nature of the assay: hα2AAR functional agonist assay (Ca2+ mobilization, rat basophil leukemia cells). As to conditions: 100 µM; % of control response to 0.1 µM epinephrine bitartrate.
Excerpt: as §1
The rat basophil leukemia cells were distributed in microplates at a density of 1.1 × 10^4 cells/well after suspending in a HBSS buffer (Invitrogen) containing 20 mM HEPES. Then, the fluorescent probe (Fluo8, AAT Bioquest) mixed with probenecid in HBSS buffer (Invitrogen) complemented with 20 mM Hepes (Millipore) (pH 7.4) was added into each well incubated for 60 min at 30 °C. Thereafter, the assay plates were positioned in a microplate reader (FlipR Tetra, Molecular Device) and we added test compounds, reference agonist/antagonist or HBSS buffer (basal control). Change in fluorescence intensity which varies proportionally to the free cytosolic Ca^2+ ion concentration was measured.

In assay [4] the target is T4, Alpha-2C adrenergic receptor (hα2CAR) (Homo sapiens, UniProt P18825).
T4 construct: host or cells: CHO cells
T4 sequence (P18825 1-462): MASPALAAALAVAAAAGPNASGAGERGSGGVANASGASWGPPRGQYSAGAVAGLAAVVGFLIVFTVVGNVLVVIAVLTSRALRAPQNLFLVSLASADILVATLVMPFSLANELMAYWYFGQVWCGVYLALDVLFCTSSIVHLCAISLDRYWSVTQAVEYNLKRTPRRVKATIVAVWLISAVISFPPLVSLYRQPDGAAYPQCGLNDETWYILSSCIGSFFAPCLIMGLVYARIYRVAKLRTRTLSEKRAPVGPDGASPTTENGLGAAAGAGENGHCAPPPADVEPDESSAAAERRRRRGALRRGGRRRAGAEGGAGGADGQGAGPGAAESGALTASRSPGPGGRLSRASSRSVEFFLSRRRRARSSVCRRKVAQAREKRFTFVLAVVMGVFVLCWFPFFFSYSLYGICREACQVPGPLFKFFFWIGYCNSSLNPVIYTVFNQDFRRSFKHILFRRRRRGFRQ
Nature of the assay: hα2CAR functional antagonist assay (cAMP, HTRF, CHO cells). The settings on record: read-out: Antagonist Effect. As to the method:
as §1, §2
(§4) After 10 min at 37 °C, the cells were lysed and the fluorescence acceptor (D2-labeled cAMP) and fluorescence donor (anti-cAMP antibody labeled with europium cryptate) were added.

The target of another assay is h5-HT1BR (Homo sapiens, UniProt P28222). Nature of the assay: h5-HT1BR functional antagonist assay (cAMP, HTRF, Hela cells). As to conditions: HeLa, read-out: Antagonist Effect. The procedure: as §1, §2
Sequence of h5-HT1BR (P28222 whole entry): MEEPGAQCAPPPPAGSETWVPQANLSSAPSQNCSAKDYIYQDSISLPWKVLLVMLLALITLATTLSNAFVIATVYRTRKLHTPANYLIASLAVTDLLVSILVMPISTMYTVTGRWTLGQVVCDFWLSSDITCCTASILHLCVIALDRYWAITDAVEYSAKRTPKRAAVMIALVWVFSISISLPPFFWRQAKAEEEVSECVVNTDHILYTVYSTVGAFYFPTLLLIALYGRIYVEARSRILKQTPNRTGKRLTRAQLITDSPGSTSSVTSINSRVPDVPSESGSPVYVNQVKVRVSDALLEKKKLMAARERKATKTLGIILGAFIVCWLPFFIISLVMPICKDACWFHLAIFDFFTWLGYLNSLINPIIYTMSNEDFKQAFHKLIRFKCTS
Concisely, a plasmid containing the GPCR gene of interest (5-HT1B) was transfected into Hela cells. The resulting stable transfectants were suspended in HBSS buffer (Invitrogen, Carlsbad, CA, USA) containing 20 mM HEPES (pH 7.4), […], 1 mg/mL glucose, and 500 μM IBMX and distributed in microplates at a density of 2 × 10^4 cells/well. […] Then, the cells were lysed and a fluorescence acceptor (D2-labeled cAMP) and fluorescence donor (anti-cAMP antibody with europium cryptate) were added following 60 min incubation at RT.

In assay [5] the target is T4, Alpha-2C adrenergic receptor (hα2CAR). Briefly: hα2CAR functional agonist assay (cAMP, HTRF, CHO cells). As to conditions: for Agonist Effect: % of control response to 1 µM epinephrine; for EC50: agonist effect, mean ± SD, n = 3. As to the method: as §1, §2, §4
The target in assay [6] is T5, δ-opioid receptor (hδ-OPR) (Homo sapiens, UniProt P41143).
T5 construct: host or cells: rat basophil leukemia cells
T5 sequence (P41143 whole entry): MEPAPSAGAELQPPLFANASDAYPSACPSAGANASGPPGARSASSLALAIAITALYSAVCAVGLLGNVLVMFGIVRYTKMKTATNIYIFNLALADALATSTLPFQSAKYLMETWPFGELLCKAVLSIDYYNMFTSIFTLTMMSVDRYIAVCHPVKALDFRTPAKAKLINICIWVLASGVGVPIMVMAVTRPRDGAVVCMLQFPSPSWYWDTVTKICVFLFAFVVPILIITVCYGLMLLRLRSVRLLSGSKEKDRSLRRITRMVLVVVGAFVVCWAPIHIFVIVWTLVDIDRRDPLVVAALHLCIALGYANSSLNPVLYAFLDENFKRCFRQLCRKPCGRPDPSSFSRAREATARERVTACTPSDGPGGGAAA
Briefly: hδ-OPR functional agonist assay (Ca2+ mobilization, rat basophil leukemia cells). As to conditions: 100 µM; % of control response to 1 µM DPDPE.
Excerpt: as §1
Thereafter, a mixture of fluorescent probe (Fluo8, AAT Bioquest) and probenecid in HBSS buffer (Invitrogen) complemented with 20 mM Hepes (Millipore) (pH 7.4) was added and plates were incubated for 60 min at 30 °C. Then, the assay plates were positioned in a FlipR Tetra microplate reader (Molecular Device, San Jose, CA, USA) for the addition of the test compound, reference agonist/antagonist, or HBSS buffer (basal control). Change in fluorescence intensity that varies proportionally to the free cytosolic Ca^2+ ion concentration was measured.

Assay [7] deals with T1, Cannabinoid receptor 1 (CB1R). Nature of the assay: hCB1R functional agonist assay (cAMP, HTRF, CHO cells). As to conditions: for Agonist Effect: % of control response to 10 nM CP 55940. As to the method:
as §1, §2, §3

T1 sequence (P21554 whole entry): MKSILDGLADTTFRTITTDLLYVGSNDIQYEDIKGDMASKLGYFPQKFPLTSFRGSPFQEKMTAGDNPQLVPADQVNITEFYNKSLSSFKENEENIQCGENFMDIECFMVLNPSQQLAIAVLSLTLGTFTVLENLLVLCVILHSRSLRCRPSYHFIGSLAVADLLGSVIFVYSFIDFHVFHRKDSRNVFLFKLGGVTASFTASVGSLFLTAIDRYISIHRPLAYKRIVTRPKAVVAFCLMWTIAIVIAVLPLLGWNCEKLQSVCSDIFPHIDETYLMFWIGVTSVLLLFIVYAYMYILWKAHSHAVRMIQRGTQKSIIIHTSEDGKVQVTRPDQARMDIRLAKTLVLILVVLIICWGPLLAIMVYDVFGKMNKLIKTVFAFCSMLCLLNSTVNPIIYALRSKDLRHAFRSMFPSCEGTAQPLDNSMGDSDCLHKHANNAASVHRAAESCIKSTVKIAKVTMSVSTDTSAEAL

With `Oc1cc(O)cc(Oc2c(O)cc(O)c3c2Oc2c(O)cc4oc5c(Oc6cc(O)cc(O)c6)c(O)cc(O)c5c4c2O3)c1` [PFF-A, phlorofucofuroeckol-A], the inhibition at 100 µM in assay [1] is 21.4 ± 0.49%; in assay [2] it was 30.1 ± 0.78%; in assay [4] it was 19.2 ± 9.76%; on h5-HT1BR, -18.5 ± 2.69%. For the same molecule, the “Agonist Effect” value in assay [3] is −0.5 ± 0.85%; in assay [5] (12.5 µM) it was 22.03 ± 6.61%; in assay [5] (25 µM), 55% and 55.0 ± 9.13%; in assay [5] (50 µM) it was 62.27 ± 6.53%; in assay [5] (100 µM), 83.8 ± 0.07%; in assay [6], 14.7 ± 7.35%. For the same molecule, the “Agonist Effect” value is 46.7% and 46.7 ± 6.22% in assay [7] (12.5 µM); 80.3% and 80.3 ± 4.10% in assay [7] (25 µM); 96.45% and 96.45 ± 5.02% in assay [7] (50 µM); 113.8 ± 3.68% in assay [7] (100 µM). The inhibition at 200 µM on h5-HT1BR was -35.5 ± 4.38%. The EC50 in assay [5] turned out to be 23.7 ± 3.32 µM; in assay [7] (agonist effect, mean ± SD, n = 3), 13.4 ± 2.03 µM.
Turning to `Oc1cc(O)cc(Oc2c(O)cc(O)c3c2Oc2c(O)cc(Oc4c(O)cc(Oc5c(O)cc(O)c6c5Oc5c(O)cc(O)cc5O6)cc4O)cc2O3)c1` [Dieckol, dieckol], the inhibition at 100 µM is 159 ± 17.8% in assay [1], 22.6 ± 5.44% in assay [2], -1.2 ± 6.08% in assay [4] and -7.3 ± 3.96% at h5-HT1BR. Also, the “Agonist Effect” value in assay [3] was 13.4 ± 19.87%; in assay [5] (100 µM), 52.4 ± 4.24%; in assay [5] (150 µM) it was 73.0 ± 6.42%; in assay [5] (200 µM), 74.77 ± 6.60%; in assay [6] it was −5.7 ± 0.14%; in assay [7] (100 µM), −23.3 ± 12.09%. At h5-HT1BR, the inhibition at 200 µM was -8.1 ± 0.85%. Also, a half-maximal effect in assay [5] (EC50) was put at 98.8 ± 7.71 µM.
